Experimental data as given in patent US6887864B2, “Azepane derivatives” (Hoffmann-La Roche Inc., priority 2002, dated 2005).
pIC50: −log10 of the molar value.

Tests used:
[1] = molecular target: T1, AKT (Homo sapiens, UniProt P31749); experiment: cellular AKT activity assay (GSK-3 Ser21/Ser9 phosphorylation in LNCaP cells, immunoblot); format: cell-based; set-up: endogenous in cells; host or cells: LNCaP prostate cancer cells; details: 1 h treatment, inhibitors 6 μM to 187 nM, read-out: values found for effect on AKT activity in living cells (level of GSK-3-Ser21/Ser9 phosphorylation)
Source text: Additionally to Example 3 the acticity of compounds according to the invention was studied on a cellular AKT activity assay as follows:
Prostate cancer cell line LNCaP was passaged in RPMI 1640 with 10% fetal calf serum, 50 units/ml penicillin, and 50 units/ml streptomycin. LNCaP cells were characterized by a constitutive activation of AKT. Constitutive active AKT phosphorylates glycogen synthase kinase-3 (GSK-3) at Ser21/Ser9 in LNCaP cells. To measure the effect of compounds on the activity of AKT in living cells, LNCaP cells were treated with various concentrations of inhibitors (6 μM to 187 nM). After 1 h, the cells were harvested in lysis solution containing 50 mM HEPES (pH 7.0), 150 mM NaCl, 1.5 mM MgCl2 ,1 mM EGTA, 100 mM NaF, 10 mM sodium PPi, 10% glycerol, 1% Triton X-100, 1 mM Na3 […], […], 5 mM iodoacetic acid, and […]. The proteins from whole cell extracts were electrophoresed on 7.5% SDS/PAGE gels. Afterwards, proteins were transferred onto Nitrocellulose filter and immunoblotting using the enhanced chemiluminescence (ECL) detection system (Amersham Pharmacia) was performed. The level of GSK-3-Ser21/Ser9 phosphorylation was thereby determined using polyclonal anti-P-GSK-3-Ser-21/9 antibody (rabbit; New England Biolabs).

[2] = molecular target: T1, AKT; experiment: ELISA-based AKT kinase assay; format: biochemical; set-up: made in house; host or cells: Sf9 insect cells; details: AKT expressed in Sf9 cells, substrate peptide 300 nM, ATP 5 μM, 30 min at room temperature
Source text: In order to study AKT inhibitory activity of the compounds according to the invention, an ELISA-based assay was developed for AKT. The assay design utilized a N-terminally biotinylated substrate peptide. When this substrate was phosphorylated by the AKT kinase, the product was recognized by a substrate/sequence-specific antibody known to bind to particular phosphorylated serine residues. For this assay, a Biotin-[…] peptide and anti-phospho-GSK-3α Ser21 antibody (rabbit) from Cell Signaling Technology/New England Biolabs were used.
The enzymatic reactions were carried out with AKT expressed in Sf9 cells (100 ng/reaction), substrate peptide (300 nM) and ATP (5 μM) in the absence or presence of different concentrations of compounds dissolved in DMSO. The final concentration of DMSO was 1%. The mixtures were reacted for 30 min at room temperature in assay buffer containing 50 mM Tris-HCl, 10 mM MgCl2, 1.0 mM DTT, 2 mM Na3VO4, pH 7.5, in a final volume of 40 μl. The reaction was stopped with addition of 10 μl 0,12 M EDTA/0,12 M EGTA. The reaction mixture was transferred to a SA-coated micro-titer-plate. After 1 h incubation, the plate was washed with PBS using a 384-well Embla plate washer. Anti-phospho-GSK-3α Ser21 antibody was added. After 1 h incubation the plate was washed with PBS and bound antibody was detected by addition of polyclonal<Rabbit>S-IgG-POD-conjugate from Roche Diagnostics GmbH. After 1 h incubation, the plate was washed with PBS. Amount of phosphorylated peptide was measured by an enzyme-catalyzed color reaction (ABTS conversion) and photometrical measurement at 405 nm.
Calculation of IC50 values were performed with ActivityBase.

[3] = mouse plasma stability test; format: in vitro ADME; details: 10 μmol/1, 37° C.
Experimental: After defined periods of time with respect to the addition of said compounds to the mouse-plasma (t=0, 0.5, 1, 2, 4 h ), equal portions were isolated from the plasma, separated with HPLC and analyzed by mass spectrometry. During all these steps, the temperature was kept constant at 37° C. In the following table, the plasma stability of compounds according to the invention was compared to one of the selected compounds from EP 0 663 393 A1.

T1 sequence (P31749 whole entry): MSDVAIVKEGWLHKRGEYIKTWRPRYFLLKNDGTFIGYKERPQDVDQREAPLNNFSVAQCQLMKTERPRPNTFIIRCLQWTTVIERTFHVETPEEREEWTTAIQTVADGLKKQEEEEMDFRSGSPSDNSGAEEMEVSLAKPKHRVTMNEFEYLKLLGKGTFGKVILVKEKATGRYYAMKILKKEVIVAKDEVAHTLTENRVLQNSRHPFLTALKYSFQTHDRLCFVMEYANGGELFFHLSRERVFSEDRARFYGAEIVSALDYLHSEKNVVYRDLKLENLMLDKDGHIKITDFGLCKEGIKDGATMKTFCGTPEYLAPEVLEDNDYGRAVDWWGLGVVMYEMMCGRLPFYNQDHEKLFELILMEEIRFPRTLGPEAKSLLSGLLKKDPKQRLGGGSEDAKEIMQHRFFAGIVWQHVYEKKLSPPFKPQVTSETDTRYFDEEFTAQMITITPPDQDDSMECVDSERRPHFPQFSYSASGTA

Structure (SMILES) | melting point | pIC50 [1] | pIC50 [2] | Decrease [%] (after 4 h) [3]
Cc1ccc2cc(O)c(C(=O)c3ccc(C(=O)N[C@@H]4CCCNC[C@H]4NC(=O)c4ccncc4)cc3)c(F)c2n1.Cl | 255 to 260 °C |  |  | 
CC1(C)CCN(c2ccc(O)c(C(=O)c3ccc(C(=O)N[C@@H]4CCCNC[C@H]4NC(=O)c4ccncc4)cc3)c2)CC1.Cl | 229 to 234 °C |  |  | 
CC1(C)CCCNC1c1ccc(O)c(C(=O)c2ccc(C(=O)N[C@@H]3CCCNC[C@H]3NC(=O)c3ccncc3)cc2)c1F.Cl (stereo partly drawn) | 265 °C |  |  | 
COc1ccc(O)c(C(=O)c2ccc(C(=O)N[C@@H]3CCCNC[C@H]3NC(=O)c3ccc(O)cc3)cc2)c1F.Cl | 190 to 196 °C |  |  | 
Cl.O=C(N[C@@H]1CCCNC[C@H]1NC(=O)c1ccncc1)c1ccc(C(=O)c2c(O)cc3cccnc3c2F)cc1 | 247 to 251 °C |  |  | 
CC(C)(C)c1ccc2cc(O)c(C(=O)c3ccc(C(=O)N[C@@H]4CCCNC[C@H]4NC(=O)c4ccncc4)cc3)c(F)c2n1.Cl | 215 °C |  |  | 
Cl.O=C(N[C@@H]1CCCNC[C@H]1NC(=O)c1ccncc1)c1ccc(C(=O)c2c(O)ccc3c2OCCO3)cc1 | 230 to 240 °C |  |  | 
CN(C)c1ccc(O)c(C(=O)c2ccc(C(=O)N[C@@H]3CCCNC[C@H]3NC(=O)c3ccc(O)cc3)cc2)c1.Cl | 203 to 206 °C |  |  | 
COc1ccc(O)c(C(=O)c2ccc(C(=O)N[C@@H]3CCCNC[C@H]3NC(=O)c3ccncn3)cc2)c1F.Cl | 256 to 265 °C |  |  | 
CC(C)Nc1ccc(O)c(C(=O)c2ccc(C(=O)N[C@@H]3CCCNC[C@H]3NC(=O)c3ccncc3)cc2)c1.Cl | 227 to 230 °C |  |  | 
CC(C)Oc1ccc(O)c(C(=O)c2ccc(C(=O)N[C@@H]3CCCNC[C@H]3NC(=O)c3ccncc3)cc2)c1.Cl | 243 to 249 °C |  |  | 
COc1ccc(O)c(C(=O)c2ccc(C(=O)N[C@@H]3CCCNC[C@H]3NC(=O)c3ccncc3)cc2)c1.Cl [Example 2-5, N-{(3R,4R)-4-[4-(2-Hydroxy-5-methoxy-benzoyl)-benzoylamino]-azepan-3-yl}-isonicotinamide hydrochloride] | 230 to 240 °C | 5.70 | 7.82 | 
COc1ccc(O)c(C(=O)c2ccc(C(=O)N[C@@H]3CCCNC[C@H]3NC(=O)c3ccnc(N)c3)cc2)c1F.Cl | 223 to 241 °C |  |  | 
Cc1cc(C(=O)c2ccc(C(=O)N[C@@H]3CCCNC[C@H]3NC(=O)c3ccncc3)cc2)c(O)cn1.Cl | 203 to 208 °C |  |  | 
Cc1cccc(C(=O)c2ccc(C(=O)N[C@@H]3CCCNC[C@H]3NC(=O)c3ccncc3)cc2)c1.Cl | 190 to 196 °C |  |  | 
Cc1cc(C(=O)N[C@@H]2CNCCC[C@H]2NC(=O)c2ccc(C(=O)c3cc(N(C)C)ccc3O)cc2)cc(C)c1O.Cl | 217 to 219 °C |  |  | 
Cl.O=C(N[C@@H]1CCCNC[C@H]1NC(=O)c1ccncc1)c1ccc(C(=O)c2cc(O)ccc2O)cc1 | 108 to 114 °C |  |  | 
CSc1ccc(O)c(C(=O)c2ccc(C(=O)N[C@@H]3CCCNC[C@H]3NC(=O)c3ccncc3)cc2)c1.Cl [Example 2-2, N-{(3R,4R)-4-[4-(6-Hydroxy-3-methylsulfanyl-benzoyl)-benzoylamino]-azepan-3-yl}-isonicotinamide hydrochloride] | 183 to 185 °C | 5.82 | 7.96 | 26.9%
Cl.NCc1ccc(O)c(C(=O)c2ccc(C(=O)N[C@@H]3CCCNC[C@H]3NC(=O)c3ccncc3)cc2)c1 | 215 to 218 °C |  |  | 
CN(C)c1ccc(O)c(C(=O)c2ccc(C(=O)N[C@@H]3CCCNC[C@H]3NC(=O)c3ccncc3)cc2)c1.Cl | 230 to 245 °C |  |  | 
COc1ccc(O)c(C(=O)c2ccc(C(=O)N[C@@H]3CCCNC[C@H]3NC(=O)c3ccncc3)cc2)c1OC.Cl [Example 2-4, N-{(3R,4R)-4-[4-(6-Hydroxy-2,3-dimethoxy-benzoyl)-benzoylamino]-azepan-3-yl}-isonicotinamide hydrochloride] | 185 to 193 °C | < 4.62 | 6.94 | 
Cc1ccc(O)c(C(=O)c2ccc(C(=O)N[C@@H]3CCCNC[C@H]3NC(=O)c3ccncc3)cc2)c1F.Cl [Example 2-1, N-{(3R,4R)-4-[4-(2-Fluoro-6-hydroxy-3-methyl-benzoyl)-benzoylamino]-azepan-3-yl}-isonicotinamide hydrochloride] | 181 to 184 °C | 5.52 | 8.15 | 21.9%
COc1ccc(O)c(C(=O)c2ccc(C(=O)N[C@@H]3CCCNC[C@H]3NC(=O)c3ccncc3)cc2)c1F.Cl [Example 1a, N-{(3R, 4R)-4-[4-(2-Fluoro-6-hydroxy-3-methoxy-benzoyl)-benzoylamino]-azepan-3-yl}-isonicotinamide hydrochloride] | 200 to 222 °C |  |  | 6.2%
Cl.O=C(N[C@@H]1CCCNC[C@H]1NC(=O)c1ccncc1)c1ccc(C(=O)c2c(O)ccc3ncccc23)cc1 | 215 to 220 °C |  |  | 
Cl.O=C(N[C@@H]1CCCNC[C@H]1NC(=O)c1ccncc1)c1ccc(C(=O)c2cc(N3CCCCC3)ccc2O)cc1 | 218 to 224 °C |  |  | 
CC1(C)CCCN(c2ccc(O)c(C(=O)c3ccc(C(=O)N[C@@H]4CCCNC[C@H]4NC(=O)c4ccncc4)cc3)c2)C1.Cl | 194 to 198 °C |  |  | 
Cc1ccc(O)c(C(=O)c2ccc(C(=O)N[C@@H]3CCCNC[C@H]3NC(=O)c3ccncc3)cc2)c1.Cl [Example 2-6, N-{(3R,4R)-4-[4-(2-Hydroxy-5-methyl-benzoyl)-benzoylamino]-azepan-3-yl}-isonicotinamide hydrochloride] | 215 to 219 °C | 6.00 | 7.80 | 
COc1ccc(O)c(C(=O)c2ccc(C(=O)N[C@@H]3CCCNC[C@H]3NC(=O)c3cc(C)c(O)c(C)c3)cc2)c1F.Cl | 180 to 183 °C |  |  | 
Cl.O=C(N[C@@H]1CCCNC[C@H]1NC(=O)c1ccncc1)c1ccc(C(=O)c2cc(C3CCCCN3)ccc2O)cc1 (stereo partly drawn) | 195 to 210 °C |  |  | 
